# Measured values published in ChEMBL document CHEMBL3045908, “Phenolic and iridoid glycosides from the rhizomes of Cyperus rotundus L” (Med Chem Res, 2013).
# Test system: RAW264.7
# Test: Anti-inflammatory activity in Mus musculus (mouse) RAW264.7 cells assessed as inhibition of PMA-induced macrophages respiratory burst measured up to 30 min by chemiluminescence method
# Format: functional, cell-based
# Conditions: RAW264.7, 0.5 h
structure (smiles),measurement,value
COc1cc(/C=C/C(=O)O[C@H]2[C@H](O[C@@H]3O[C@H](CO)[C@@H](O)[C@H](O)[C@H]3O)[C@@H](O[C@@H]3OC[C@H](O)[C@H](O)[C@H]3O)[C@H](OCCc3ccc(O)c(O)c3)O[C@@H]2CO[C@@H]2OC[C@H](O)[C@@H](O)[C@@H]2O)ccc1O [HELIOSIDE C],IC50,320 µM
COC(=O)C1=CO[C@@H](O[C@@H]2O[C@H](CO[C@@H]3O[C@H](COC(=O)/C=C/c4ccc(O)cc4)[C@@H](O)[C@H](O)[C@H]3O)[C@@H](O)[C@H](O)[C@H]2O)[C@@H]2C(CO)=CC[C@H]12 [6'-O-P-COUMAROYLGENIPIN GENTIOBIOSIDE],IC50,78.7 µM
COc1cc(/C=C/C(=O)O[C@H]2[C@H](O[C@@H]3O[C@H](CO)[C@@H](O)[C@H](O)[C@H]3O)[C@@H](O[C@@H]3OC[C@H](O)[C@H](O)[C@H]3O)[C@H](OCCc3ccc(O)c(O)c3)O[C@@H]2CO)ccc1O [CHIONOSIDE A],IC50,336 µM
COC(=O)C1=CO[C@@H](O[C@@H]2O[C@H](CO[C@@H]3O[C@H](COC(=O)/C=C/c4cc(O)c(O)c(O)c4)[C@@H](O)[C@H](O)[C@H]3O)[C@@H](O)[C@H](O)[C@H]2O)[C@@H]2C(CO)=CC[C@H]12 [ROTUNDUSIDE B],IC50,31.1 µM
COC(=O)C1=CO[C@@H](O[C@@H]2O[C@H](CO)[C@@H](O)[C@H](O)[C@H]2O)[C@@H]2C(CO)=C[C@@H](OC[C@H]3O[C@@H](O[C@@H]4OC=C(C(=O)OC)[C@H]5C=C[C@](O)(CO)[C@@H]45)[C@H](O)[C@@H](O)[C@@H]3O)[C@H]12 [ROTUNDUSIDE A],IC50,217 µM
C[C@@H]1O[C@@H](OC[C@H]2O[C@@H](Oc3c(-c4ccc(O)c(O)c4)oc4cc(O)cc(O)c4c3=O)[C@H](O)[C@@H](O)[C@@H]2O)[C@H](O)[C@H](O)[C@H]1O [RUTIN],IC50,15.1 µM
C[C@@H]1C[C@H]2[C@@H]3CCC4=CC(=O)C=C[C@]4(C)[C@@]3(F)[C@@H](O)C[C@]2(C)[C@@]1(O)C(=O)CO [DEXAMETHASONE],IC50,355 µM
O=C(/C=C/c1ccc(O)cc1)OC[C@H]1O[C@@H](OCCc2ccc(O)c(O)c2)[C@H](O[C@@H]2OC[C@H](O)[C@H](O)[C@H]2O)[C@@H](O[C@@H]2O[C@H](CO)[C@@H](O)[C@H](O)[C@H]2O)[C@@H]1O [ISOARAGOSIDE],IC50,308 µM
